Drawing on PubChem BioAssay AID248 (DTP/NCI, 2004), this text covers T/C for 20 compounds.

This test deals with L1210 leukemia ip in BDF1 mice, survival T/C. The test is described as follows: NCI In Vivo Anticancer Drug Screen. Data for tumor model L1210 Leukemia (intraperitoneal) in B6D2F1 (BDF1) mice. Conditions: endpoint: mean survival time, higher = longer survival. The procedure, abridged: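 Read-out is survival time, reported as the treated-group measurement over the vehicle-control measurement.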

Where [1] appears, read: dose: 100.0 mg/kg/injection, schedule: Q01DX001 (ip), vehicle: saline.
Where [2] appears, read: dose: 200.0 mg/kg/injection, schedule: Q01DX001 (ip), vehicle: saline.
The mark [3] stands for this setting: dose: 400.0 mg/kg/injection, schedule: Q01DX001 (ip), vehicle: saline.
Where [4] appears, read: dose: 100.0 mg/kg/injection, schedule: Q04DX002 (ip), vehicle: Klucel (hydroxypropylcellulose) (HPC).
The mark [5] stands for this setting: dose: 200.0 mg/kg/injection, schedule: Q04DX002 (ip), vehicle: Klucel (hydroxypropylcellulose) (HPC).
Setting [6] is: dose: 400.0 mg/kg/injection, schedule: Q04DX002 (ip), vehicle: Klucel (hydroxypropylcellulose) (HPC).
Setting [7] is: dose: 100.0 mg/kg/injection, schedule: Q04DX003 (ip), vehicle: Klucel (hydroxypropylcellulose) (HPC).
[8] abbreviates: dose: 200.0 mg/kg/injection, schedule: Q04DX003 (ip), vehicle: Klucel (hydroxypropylcellulose) (HPC).
Where [9] appears, read: dose: 400.0 mg/kg/injection, schedule: Q04DX003 (ip), vehicle: Klucel (hydroxypropylcellulose) (HPC).
The mark [10] stands for this setting: dose: 100.0 mg/kg/injection, schedule: Q01DX009 (ip), vehicle: Klucel (hydroxypropylcellulose) (HPC).
Where [11] appears, read: dose: 200.0 mg/kg/injection, schedule: Q01DX009 (ip), vehicle: Klucel (hydroxypropylcellulose) (HPC).
The mark [12] stands for this setting: dose: 400.0 mg/kg/injection, schedule: Q01DX009 (ip), vehicle: Klucel (hydroxypropylcellulose) (HPC).
The mark [13] stands for this setting: dose: 100.0 mg/kg/injection, schedule: Q01DX009 (ip), vehicle: saline with Tween-80.
Where [14] appears, read: dose: 100.0 mg/kg/injection, schedule: Q04DX003 (ip), vehicle: saline with Tween-80.
Where [15] appears, read: dose: 200.0 mg/kg/injection, schedule: Q01DX001 (ip), vehicle: Klucel (hydroxypropylcellulose) (HPC).
[16] abbreviates: dose: 400.0 mg/kg/injection, schedule: Q01DX001 (ip), vehicle: Klucel (hydroxypropylcellulose) (HPC).
[17] abbreviates: dose: 200.0 mg/kg/injection, schedule: Q04DX003 (ip), vehicle: saline with Tween-80.
[18] abbreviates: dose: 400.0 mg/kg/injection, schedule: Q04DX003 (ip), vehicle: saline with Tween-80.

Inconclusive results and toxic doses are left out.

As for `CCOC(=O)C(N)Cc1ccc(OC)c(N(CCCl)CCCl)c1` (configuration not stated), the T/C (dose: 0.21 mg/kg/injection, schedule: Q01DX009 (ip), vehicle: carboxymethylcellulose (CMC)) was 112 % of control; the T/C (dose: 0.32 mg/kg/injection, schedule: Q01DX009 (ip), vehicle: carboxymethylcellulose (CMC)) was 112 % of control; the T/C (dose: 0.48 mg/kg/injection, schedule: Q01DX009 (ip), vehicle: carboxymethylcellulose (CMC)) is 122 % of control; the T/C (dose: 0.75 mg/kg/injection, schedule: Q01DX009 (ip), vehicle: carboxymethylcellulose (CMC)) was 112 % of control; the T/C (dose: 1.1 mg/kg/injection, schedule: Q01DX009 (ip), vehicle: carboxymethylcellulose (CMC)) was 154 % of control; the T/C (dose: 1.5 mg/kg/injection, schedule: Q01DX001 (ip), vehicle: carboxymethylcellulose (CMC)) was 115 % of control. Also, the T/C is, setting by setting: (dose: 1.5 mg/kg/injection, schedule: Q01DX009 (ip), vehicle: carboxymethylcellulose (CMC)) 155 % of control; (dose: 1.7 mg/kg/injection, schedule: Q01DX009 (ip), vehicle: carboxymethylcellulose (CMC)) 160 % of control; (dose: 2.6 mg/kg/injection, schedule: Q01DX001 (ip), vehicle: carboxymethylcellulose (CMC)) 119 % of control; (dose: 2.6 mg/kg/injection, schedule: Q01DX009 (ip), vehicle: carboxymethylcellulose (CMC)) 160 % of control; (dose: 3.0 mg/kg/injection, schedule: Q01DX001 (ip), vehicle: carboxymethylcellulose (CMC)) 117 % of control; (dose: 3.0 mg/kg/injection, schedule: Q01DX009 (ip), vehicle: carboxymethylcellulose (CMC)) 121 % of control. Further, the T/C was 120 % of control (dose: 4.0 mg/kg/injection, schedule: Q01DX009 (ip), vehicle: carboxymethylcellulose (CMC)) and 164 % of control (dose: 9.0 mg/kg/injection, schedule: Q01DX001 (ip), vehicle: carboxymethylcellulose (CMC)).

In the case of `Cc1nc(N)[nH]c(=O)c1CCCNS(=O)(=O)c1ccc(CN)cc1`, the T/C is 115 % of control under setting [1], 98 % of control under setting [2] and 101 % of control under setting [3].

In the case of `Cc1no[n+]([O-])c1C(=O)NN`, the T/C by setting is: under setting [4], 106 % of control; under setting [5], 91 % of control; under setting [6], 95 % of control.

Take `Cc1cccc(N/N=C2\CCSc3ccccc32)c1`: the T/C reads like this: under setting [7], 95 % of control; under setting [8], 98 % of control; under setting [9], 104 % of control.

For `O=c1[nH]c2sccc2c(=O)n1OS(=O)(=O)c1ccccc1`, the T/C reads like this: under setting [10], 105 % of control; under setting [11], 122 % of control; under setting [12], 93 % of control.

For `Nc1ncc([N+](=O)[O-])cn1`, the T/C was 107 % of control under setting [10]; 103 % of control under setting [7]; 91 % of control under setting [11]; 97 % of control under setting [8]; 100 % of control under setting [12]; 94 % of control under setting [9].

Consider `O=C1C=CCCCC1`, for which the T/C (dose: 25.0 mg/kg/injection, schedule: Q01DX009 (ip), vehicle: saline with Tween-80) was 95 % of control; the T/C (dose: 50.0 mg/kg/injection, schedule: Q01DX009 (ip), vehicle: saline with Tween-80) is 101 % of control; the T/C under setting [13] is 103 % of control; the T/C under setting [14] is 103 % of control.

In the case of `O=C(COc1ccc(Cl)cc1)OCCBr`, the T/C is 121 % of control under setting [4], 105 % of control under setting [5] and 102 % of control under setting [6].

With `Nc1nc2c(nnn2C2CC(O)C(COP(=O)(O)O)O2)c(=O)[nH]1` (configuration not stated), the T/C reads like this: (dose: 100.0 mg/kg/injection, schedule: Q01DX001 (ip), vehicle: Klucel (hydroxypropylcellulose) (HPC)) 96 % of control; under setting [15], 91 % of control; under setting [16], 94 % of control.

For `Cc1ccc(Nc2ccc(Nc3ccc(C)cc3)c3c2C(=O)c2c(O)ccc(O)c2C3=O)cc1`, the T/C under setting [15] was 90 % of control and the T/C under setting [16] is 97 % of control.

`CC(C)=NNC(=O)c1ccc[n+](C)c1`: the T/C under setting [1] is 102 % of control, the T/C under setting [2] was 98 % of control and the T/C under setting [3] is 100 % of control.

In the case of `Cn1c(N)c(N=Nc2ccc(S(=O)(=O)Nc3ccccn3)cc2)c(=O)n(C)c1=O`, the T/C runs as follows: (dose: 100.0 mg/kg/injection, schedule: Q01DX001 (ip), vehicle: carboxymethylcellulose (CMC)) 98 % of control; (dose: 200.0 mg/kg/injection, schedule: Q01DX001 (ip), vehicle: carboxymethylcellulose (CMC)) 93 % of control; (dose: 400.0 mg/kg/injection, schedule: Q01DX001 (ip), vehicle: carboxymethylcellulose (CMC)) 93 % of control.

With `O=C(Nc1cccc2ccccc12)C(Cl)Cl`, the T/C reads like this: under setting [4], 100 % of control; under setting [5], 93 % of control; under setting [6], 93 % of control.

`O=[N+]([O-])c1ccc(SC2=NCCCN2)c([N+](=O)[O-])c1`: the T/C is, setting by setting: (dose: 12.5 mg/kg/injection, schedule: Q04DX002 (ip), vehicle: Klucel (hydroxypropylcellulose) (HPC)) 106 % of control; (dose: 25.0 mg/kg/injection, schedule: Q04DX002 (ip), vehicle: Klucel (hydroxypropylcellulose) (HPC)) 95 % of control.

For the compound `CCOC1C=CC(OC(C)=O)C(COC(C)=O)O1` (configuration not stated), the T/C was 108 % of control under setting [10]; 96 % of control under setting [7]; 100 % of control under setting [11]; 96 % of control under setting [8]; 104 % of control under setting [12]; 94 % of control under setting [9].

Take `Cc1ccc(NC(=O)Nc2cccc(Cl)c2C)cc1NC(=O)Nc1cccc(Cl)c1C`: the T/C was 87 % of control under setting [13]; 90 % of control under setting [14]; 87 % of control (dose: 200.0 mg/kg/injection, schedule: Q01DX009 (ip), vehicle: saline with Tween-80); 91 % of control under setting [17]; 86 % of control (dose: 400.0 mg/kg/injection, schedule: Q01DX009 (ip), vehicle: saline with Tween-80); 91 % of control under setting [18].

On to `O=C(O)C1c2ccccc2-c2c(-c3ccccc3)cccc21` (configuration not stated), for which the T/C under setting [14] was 87 % of control, the T/C under setting [17] was 91 % of control and the T/C under setting [18] was 103 % of control.

`Cc1cc(C(=O)NNCc2ccccc2)no1`: the T/C runs as follows: (dose: 12.5 mg/kg/injection, schedule: Q01DX009 (ip), vehicle: Klucel (hydroxypropylcellulose) (HPC)) 102 % of control; (dose: 25.0 mg/kg/injection, schedule: Q01DX009 (ip), vehicle: Klucel (hydroxypropylcellulose) (HPC)) 96 % of control; (dose: 50.0 mg/kg/injection, schedule: Q01DX009 (ip), vehicle: Klucel (hydroxypropylcellulose) (HPC)) 97 % of control.

Turning to `COC(=O)c1cc2ccccc2c2c1OCN(C)C2`, the T/C runs as follows: (dose: 50.0 mg/kg/injection, schedule: Q01DX001 (ip), vehicle: saline) 113 % of control; under setting [1], 110 % of control.

`CC(CN1c2ccccc2Sc2cccnc21)N(C)C` (configuration not stated): the T/C was 97 % of control (dose: 3.12 mg/kg/injection, schedule: Q01DX009 (ip), vehicle: saline); 97 % of control (dose: 6.25 mg/kg/injection, schedule: Q01DX009 (ip), vehicle: saline); 101 % of control (dose: 12.5 mg/kg/injection, schedule: Q01DX009 (ip), vehicle: saline); 103 % of control (dose: 25.0 mg/kg/injection, schedule: Q01DX009 (ip), vehicle: saline); 108 % of control (dose: 25.0 mg/kg/injection, schedule: Q04DX003 (ip), vehicle: saline); 111 % of control (dose: 50.0 mg/kg/injection, schedule: Q01DX009 (ip), vehicle: saline). Further, the T/C (dose: 50.0 mg/kg/injection, schedule: Q04DX003 (ip), vehicle: saline) was 102 % of control.
